Source: PubChem BioAssay AID1918994 (Molecular Pharmacology Branch, DTP, NCI, 2023)
Each block holds one compound with its values, some of them ahead of it.

Tested on: 292921-168-R-J2-PDC complex spheroid growth
Assay: Anticancer human tumor 292921-168-R-J2-PDC patient-derived pancreatic carcinoma cell line growth inhibition [AhR]
Details: for IC50: curve of first compound; for viability, T/C: stronger effect = lower value
Summary of the method: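 Agents were dosed in half-log steps down from roughly clinical Cmax, or from 10 microM where Cmax was unknown, alone and with AhR antagonists. Read-out: percent test/control growth of tumor spheroids containing HUVEC and MSC stromal cells.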

[1] = second compound 0.1 µM, first compound 0.000949 µM
[2] = second compound 0.1 µM, first compound 0.003 µM
[3] = second compound 0.1 µM, first compound 0.00949 µM
[4] = second compound 0.1 µM, first compound 0.03 µM
[5] = second compound 0.1 µM, first compound 0.0949 µM
[6] = second compound 0.1 µM, first compound 0.3 µM
[7] = second compound 0.316 µM, first compound 0.000949 µM
[8] = second compound 0.316 µM, first compound 0.003 µM
[9] = second compound 0.316 µM, first compound 0.00949 µM
[10] = second compound 0.316 µM, first compound 0.03 µM
[11] = second compound 0.316 µM, first compound 0.0949 µM
[12] = second compound 0.316 µM, first compound 0.3 µM
[13] = second compound 1 µM, first compound 0.000949 µM
[14] = second compound 1 µM, first compound 0.003 µM
[15] = second compound 1 µM, first compound 0.00949 µM
[16] = second compound 1 µM, first compound 0.03 µM
[17] = second compound 1 µM, first compound 0.0949 µM
[18] = second compound 1 µM, first compound 0.3 µM
[19] = second compound 3.16 µM, first compound 0.000949 µM
[20] = second compound 3.16 µM, first compound 0.003 µM
[21] = second compound 3.16 µM, first compound 0.00949 µM
[22] = second compound 3.16 µM, first compound 0.03 µM
[23] = second compound 3.16 µM, first compound 0.0949 µM
[24] = second compound 3.16 µM, first compound 0.3 µM
[25] = second compound 10 µM, first compound 0.000949 µM
[26] = second compound 10 µM, first compound 0.003 µM
[27] = second compound 10 µM, first compound 0.00949 µM
[28] = second compound 10 µM, first compound 0.03 µM
[29] = second compound 10 µM, first compound 0.0949 µM
[30] = second compound 10 µM, first compound 0.3 µM
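Also: spheroids exposed to compounds for seven days after three days of growth.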

- IC50 (second compound 0.1 µM): 6.4 nM
- IC50 (second compound 0.316 µM): 6.09 nM
- IC50 (second compound 1 µM): 5.95 nM
- IC50 (second compound 3.16 µM): 5.13 nM
- IC50 (second compound 10 µM): 3.97 nM
Structure (SMILES): CC(C)CC(NC(=O)C(Cc1ccccc1)NC(=O)c1cnccn1)B(O)O (stereo not given) + Cc1ccccc1N=Nc1ccc(NC(=O)c2ccnn2C)c(C)c1
- viability, T/C [1]: 91.6%
- viability, T/C [2]: 110%
- viability, T/C [3]: 23.4%
- viability, T/C [4]: 1.67%
- viability, T/C [5]: 0.43%
- viability, T/C [6]: 0.32%
- viability, T/C [7]: 82%
- viability, T/C [8]: 102%
- viability, T/C [9]: 23.9%
- viability, T/C [10]: 1.24%
- viability, T/C [11]: 3.16%
- viability, T/C [12]: 0.68%
- viability, T/C [13]: 82.3%
- viability, T/C [14]: 94.3%
- viability, T/C [15]: 23.8%
- viability, T/C [16]: 1.24%
- viability, T/C [17]: 0.41%
- viability, T/C [18]: 0.93%
- viability, T/C [19]: 77.5%
- viability, T/C [20]: 82.8%
- viability, T/C [21]: 15.3%
- viability, T/C [22]: 1.68%
- viability, T/C [23]: 2.65%
- viability, T/C [24]: 0.81%
- viability, T/C [25]: 59.9%
- viability, T/C [26]: 62%
- viability, T/C [27]: 15.7%
- viability, T/C [28]: 1.7%
- viability, T/C [29]: 1.05%
- viability, T/C [30]: 0.32%

- IC50 (second compound 0.1 µM): 3.86 nM
- IC50 (second compound 0.316 µM): 3.56 nM
- IC50 (second compound 1 µM): 3.34 nM
- IC50 (second compound 3.16 µM): 1.37 nM
- IC50 (second compound 10 µM): < 0.949 nM
Structure (SMILES): CCc1c2c(nc3ccc(O)cc13)-c1cc3c(c(=O)n1C2)COC(=O)[C@]3(O)CC + Cc1ccccc1N=Nc1ccc(NC(=O)c2ccnn2C)c(C)c1
- viability, T/C [1]: 78.2%
- viability, T/C [2]: 58.5%
- viability, T/C [3]: 20%
- viability, T/C [4]: 7.99%
- viability, T/C [5]: 5.02%
- viability, T/C [6]: 2.76%
- viability, T/C [7]: 68.3%
- viability, T/C [8]: 55.9%
- viability, T/C [9]: 17.3%
- viability, T/C [10]: 8.17%
- viability, T/C [11]: 3.89%
- viability, T/C [12]: 3.58%
- viability, T/C [13]: 68.6%
- viability, T/C [14]: 53.6%
- viability, T/C [15]: 18.9%
- viability, T/C [16]: 9.76%
- viability, T/C [17]: 5.35%
- viability, T/C [18]: 2.94%
- viability, T/C [19]: 54.4%
- viability, T/C [20]: 40.6%
- viability, T/C [21]: 16%
- viability, T/C [22]: 9.67%
- viability, T/C [23]: 5.09%
- viability, T/C [24]: 3.01%
- viability, T/C [25]: 47.4%
- viability, T/C [26]: 40.9%
- viability, T/C [27]: 17.5%
- viability, T/C [28]: 10.8%
- viability, T/C [29]: 5.21%
- viability, T/C [30]: 3.01%

- IC50 (second compound 0.1 µM): < 31.6 nM
- IC50 (second compound 0.316 µM): < 31.6 nM
- IC50 (second compound 1 µM): < 31.6 nM
- IC50 (second compound 3.16 µM): < 31.6 nM
- IC50 (second compound 10 µM): < 31.6 nM
Structure (SMILES): COc1cc(Nc2ncc3c(n2)-c2ccc(Cl)cc2C(c2c(F)cccc2OC)=NC3)ccc1C(=O)O + Cc1ccccc1N=Nc1ccc(NC(=O)c2ccnn2C)c(C)c1
- viability, T/C (second compound 0.1 µM, first compound 0.0316 µM): 45.7%
- viability, T/C (second compound 0.1 µM, first compound 0.1 µM): 37.9%
- viability, T/C (second compound 0.1 µM, first compound 0.316 µM): 53.5%
- viability, T/C (second compound 0.1 µM, first compound 1 µM): 45.1%
- viability, T/C (second compound 0.1 µM, first compound 3.16 µM): 39.8%
- viability, T/C (second compound 0.1 µM, first compound 10 µM): 29.1%
- viability, T/C (second compound 0.316 µM, first compound 0.0316 µM): 42.2%
- viability, T/C (second compound 0.316 µM, first compound 0.1 µM): 42.6%
- viability, T/C (second compound 0.316 µM, first compound 0.316 µM): 43%
- viability, T/C (second compound 0.316 µM, first compound 1 µM): 41%
- viability, T/C (second compound 0.316 µM, first compound 3.16 µM): 36.8%
- viability, T/C (second compound 0.316 µM, first compound 10 µM): 30.3%
- viability, T/C (second compound 1 µM, first compound 0.0316 µM): 46.2%
- viability, T/C (second compound 1 µM, first compound 0.1 µM): 34.2%
- viability, T/C (second compound 1 µM, first compound 0.316 µM): 45.8%
- viability, T/C (second compound 1 µM, first compound 1 µM): 42.7%
- viability, T/C (second compound 1 µM, first compound 3.16 µM): 40.9%
- viability, T/C (second compound 1 µM, first compound 10 µM): 24%
- viability, T/C (second compound 3.16 µM, first compound 0.0316 µM): 32.8%
- viability, T/C (second compound 3.16 µM, first compound 0.1 µM): 35%
- viability, T/C (second compound 3.16 µM, first compound 0.316 µM): 40.6%
- viability, T/C (second compound 3.16 µM, first compound 1 µM): 36.5%
- viability, T/C (second compound 3.16 µM, first compound 3.16 µM): 34.8%
- viability, T/C (second compound 3.16 µM, first compound 10 µM): 23.1%
- viability, T/C (second compound 10 µM, first compound 0.0316 µM): 34%
- viability, T/C (second compound 10 µM, first compound 0.1 µM): 35.5%
- viability, T/C (second compound 10 µM, first compound 0.316 µM): 33.4%
- viability, T/C (second compound 10 µM, first compound 1 µM): 33.8%
- viability, T/C (second compound 10 µM, first compound 3.16 µM): 30%
- viability, T/C (second compound 10 µM, first compound 10 µM): 20.5%
